The source of these data is patent publication US11896646B2, “Formulated and/or co-formulated liposome compositions containing toll-like receptor (“TLR”) agonist prodrugs useful in the treatment of cancer and methods thereof” (Nammi Therapeutics, Inc., priority 2020, dated 2024).

For one assay, the target named is T1, human TLR8 (Homo sapiens, UniProt Q9NR97).
T1 construct: host or cells: HEK-Blue hTLR8 (HEK 293)
T1 sequence (Q9NR97 27-1041): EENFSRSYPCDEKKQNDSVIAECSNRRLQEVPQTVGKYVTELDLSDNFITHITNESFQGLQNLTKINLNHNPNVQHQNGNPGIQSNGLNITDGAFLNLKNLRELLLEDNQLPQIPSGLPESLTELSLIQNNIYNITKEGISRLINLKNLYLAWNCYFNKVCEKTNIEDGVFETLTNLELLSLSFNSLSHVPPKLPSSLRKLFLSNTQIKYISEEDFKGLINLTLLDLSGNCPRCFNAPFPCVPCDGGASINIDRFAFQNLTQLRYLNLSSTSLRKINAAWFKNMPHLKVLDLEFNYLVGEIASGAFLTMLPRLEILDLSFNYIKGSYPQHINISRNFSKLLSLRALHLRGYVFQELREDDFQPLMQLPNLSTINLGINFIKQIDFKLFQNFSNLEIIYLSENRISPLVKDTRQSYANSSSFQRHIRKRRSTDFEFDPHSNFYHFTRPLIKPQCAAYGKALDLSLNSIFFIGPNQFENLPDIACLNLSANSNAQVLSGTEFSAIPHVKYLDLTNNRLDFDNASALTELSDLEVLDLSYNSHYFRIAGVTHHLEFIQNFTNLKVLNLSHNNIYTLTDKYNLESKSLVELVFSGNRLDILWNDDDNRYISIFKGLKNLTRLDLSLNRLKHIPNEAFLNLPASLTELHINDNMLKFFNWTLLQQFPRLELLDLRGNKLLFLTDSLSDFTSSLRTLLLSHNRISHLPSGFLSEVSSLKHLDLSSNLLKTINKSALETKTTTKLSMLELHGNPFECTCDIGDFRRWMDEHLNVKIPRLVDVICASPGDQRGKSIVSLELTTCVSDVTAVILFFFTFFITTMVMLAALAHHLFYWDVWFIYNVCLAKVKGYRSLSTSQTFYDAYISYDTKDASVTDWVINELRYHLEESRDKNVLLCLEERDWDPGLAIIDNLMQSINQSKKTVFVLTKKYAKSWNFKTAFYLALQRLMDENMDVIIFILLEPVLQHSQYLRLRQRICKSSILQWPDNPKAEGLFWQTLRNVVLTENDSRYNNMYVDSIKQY
Kind of assay: HEK-Blue TLR8 SEAP reporter / QUANTI-Blue assay (Example 20). It counts as cell-based. To be noted: HEK-Blue TLR8 cells, 24 hr incubation, different concentration. On the procedure: (§1) In another experiment, in vitro biological activity of LNP-TR3 and to further confirm targeting of TLR7 and not targeting TLR8, the following experiment(s) were performed using a RAW-Blue™ (NF-κB/AP-1 inducible secreted embryonic alkaline phosphatase (SEAP) reporter gene) Cells and QUANTI-Blue™ (alkaline phosphatase assay), HEK-Blue™ (HEK 293 cell line expressing a TLR gene and an NF-κB/AP-1 inducible secreted embryonic alkaline phosphatase (SEAP) reporter gene), and hTLR8 cell line assay (InvivoGen, San Diego, CA). Briefly, despite Raw Blue™ (NF-κB/AP-1 inducible secreted embryonic alkaline phosphatase (SEAP) reporter gene) cells that express a variety of human Toll Like Receptors (TLRs) (including TLR7/8 but with the exception of TLR5) hTLR8 cells dominantly express the human TLR8. Additionally, an NE κB/AP-1-inducible SEAP (secreted embryonic alkaline phosphatase) reporter gene were used. Stimulation of these cells with TR3 lead to NF-κB activation through TLR8 which is measured by detection of SEAP levels.

The test system of the next assay is TLRs in RAW-Blue cells. Kind of assay: RAW-Blue SEAP reporter / QUANTI-Blue assay (Example 20). The class given is cell-based, mouse. To be noted: 24 hr incubation, different concentration. On the procedure: as §1, with “Additionally, an NE κB/AP-1-inducible SEAP (secreted embryonic alkaline phosphatase) reporter gene were used.” left out
RAW-Blue™ (NF-κB/AP-1 inducible secreted embryonic alkaline phosphatase (SEAP) reporter gene) Cells were incubated with TR5, LNP-TR5, TR3, TR3+Stearic Acid, and LNP-TR3 at different concentration. After twenty-four (24) hr. incubation with the compounds, TLR stimulation was assessed by measuring the levels of SEAP optimal density (OD) using a QUANTI-Blue™ (alkaline phosphatase assay) assay. […]

The target of another assay is T2, TLR4 (Mus musculus, UniProt Q9QUK6).
T2 construct: host or cells: RAW-Blue cells
T2 sequence (Q9QUK6 26-835): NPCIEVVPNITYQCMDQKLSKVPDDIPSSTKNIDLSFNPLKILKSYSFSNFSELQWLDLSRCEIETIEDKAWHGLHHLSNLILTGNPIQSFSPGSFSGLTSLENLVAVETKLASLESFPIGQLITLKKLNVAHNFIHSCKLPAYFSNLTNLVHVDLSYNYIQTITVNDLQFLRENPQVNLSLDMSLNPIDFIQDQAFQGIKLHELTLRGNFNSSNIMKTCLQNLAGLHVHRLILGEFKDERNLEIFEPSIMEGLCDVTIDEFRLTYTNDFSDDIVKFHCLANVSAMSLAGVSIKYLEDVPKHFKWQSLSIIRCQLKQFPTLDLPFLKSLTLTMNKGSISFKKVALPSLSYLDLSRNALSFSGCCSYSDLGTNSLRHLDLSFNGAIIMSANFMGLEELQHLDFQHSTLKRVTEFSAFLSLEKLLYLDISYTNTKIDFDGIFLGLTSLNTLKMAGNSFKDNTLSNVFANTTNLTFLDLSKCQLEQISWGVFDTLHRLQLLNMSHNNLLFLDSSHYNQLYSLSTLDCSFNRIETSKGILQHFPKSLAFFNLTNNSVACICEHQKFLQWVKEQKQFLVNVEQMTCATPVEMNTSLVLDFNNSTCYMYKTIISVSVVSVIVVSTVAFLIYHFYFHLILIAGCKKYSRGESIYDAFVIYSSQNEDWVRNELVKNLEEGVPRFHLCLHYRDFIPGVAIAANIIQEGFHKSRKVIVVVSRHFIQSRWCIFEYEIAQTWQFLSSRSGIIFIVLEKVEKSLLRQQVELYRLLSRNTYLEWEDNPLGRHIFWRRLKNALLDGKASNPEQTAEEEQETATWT
T2 sequence (Q9JHF9 19-160 partner): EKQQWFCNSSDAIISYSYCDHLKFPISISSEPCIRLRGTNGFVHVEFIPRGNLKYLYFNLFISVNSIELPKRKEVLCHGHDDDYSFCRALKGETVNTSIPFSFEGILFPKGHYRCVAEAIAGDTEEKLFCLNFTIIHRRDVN
Kind of assay: RAW-Blue SEAP reporter / QUANTI-Blue assay, TLR4 (Example 18). It counts as cell-based. To be noted: RAW-Blue cells, 24 hr incubation, different concentration. On the procedure: In another experiment, in vitro biological activity of LNP-TR8 and to further confirm targeting of TLR4, the following experiment(s) were performed using a RAW-Blue™ (NF-[…]/AP-1 inducible secreted embryonic alkaline phosphatase (SEAP) reporter gene) Cells and QUANTI-Blue™ (alkaline phosphatase assay) assay (InvivoGen, San Diego, CA). Briefly, Raw Blue™ (NF-κB/AP-1 inducible secreted embryonic alkaline phosphatase (SEAP) reporter gene) cells that express human Toll Like Receptors (TLRs) (with the exception of TLR5) and an NF-κB/AP-1-inducible SEAP (secreted embryonic alkaline phosphatase) reporter gene were used. Stimulation of these cells with TR8 lead to NF-κB activation through TLR4 which is measured by detection of SEAP levels. RAW-Blue™ (NF-κB/AP-1 inducible secreted embryonicalkaline phosphatase (SEAP) reporter gene) Cells were incubated with TR8 and LNP-TR8 at different concentration. After twenty-four (24) hr. incubation with the compounds, TLR stimulation was assessed by measuring the levels of SEAP optimal density (OD) using a QUANTI-Blue™ (alkaline phosphatase assay) assay. ODs were normalized to the control (untreated) group. […] (See, FIG. 26).

Regarding `CCCCCCCCCCCCCCCCCCS(=O)(=O)NCCCCn1c(CC)nc2c(N)nc3ccccc3c21` [TR3+Stearic Acid], the “TLR stimulation (SEAP OD normalized to untreated control)” value at human TLR8 was “only TR5 in prodrug and liposome form were able to stimulate the cells”; in the assay on TLRs in RAW-Blue cells, “stimulated TLRs”.

For “Monophosphoryl Lipid A (Synthetic) [TR8]”, the “TLR stimulation (SEAP OD normalized to untreated control)” value at TLR4 is “could cause stimulation of TLR4”.
